The values below come from ChEMBL document CHEMBL3507680, “University of Dundee, Gates Library screen for HepG2 cell viability”.

The series is described as follows: Human HepG2 cell viability assay in 384 well format. The series is classed as toxicity, cell-based. Set-up: dose 125 nL, time 70.5 hour; concentration not given beside the values. Particulars: HepG2 cells, read-out: Inhibition.
With `Cc1nccc(-c2cccc(-c3ccn(CC4CCNC4)n3)c2)n1` (stereo not given), the cytotoxicity at 70.5 h is -3.45%. For `COc1ccc(-c2cn(CCn3c(C)cc(C)nc3=O)nn2)cn1`, the cytotoxicity at 70.5 h was -9.73%.

As to `CCc1ccccc1CN1CCN(Cc2ncc[nH]2)[C@H]2CS(=O)(=O)C[C@H]21`, the cytotoxicity at 70.5 h is -3.46%. Under `Cc1cc(NC(C)Cc2cccs2)n2nccc2n1` (stereo not given) stands -14.7%; under `Cc1ccc(C(=O)N2C[C@H](NS(C)(=O)=O)[C@@H](C(C)C)C2)cc1F`, 2.48%; under `Cc1cc(Cl)ccc1C(=O)C1CCCN(Cc2cnc(N(C)C)s2)C1` (stereo not given), -5.77%.

With `Cc1nn(C)c(Oc2ccc(Cl)cc2)c1CN1CC[C@H](CO)[C@@H](O)C1`, the cytotoxicity at 70.5 h is -12.9%.

Consider `CC(C)=CCN1CCN(CCCc2ccccc2)[C@H]2CS(=O)(=O)C[C@H]21`, for which the cytotoxicity at 70.5 h is -6.15%. As to `COCCN1CC(Nc2nc(C3CCCC3)nc3c2cnn3C)CC1=O` (stereo not given), the cytotoxicity at 70.5 h was found to be 18.4%. To `O=C(c1cc(Cn2ccc3ccccc32)[nH]n1)N1CCOCC1` belongs -0.75%; to `Cc1nc(CN(C)c2nccc(C(F)(F)F)n2)cs1`, -7.33%; to `Nc1ncccc1CN1C[C@@H]2CC[C@H](C1)N(CC1CC1)C2=O`, 28%. To `CCC(=O)N1CCc2[nH]cnc2C12CCN(C1CCOCC1)CC2` belongs -4.44%; to `O=C(NCc1c[nH]c(=O)[nH]c1=O)C1CCOc2ccccc2C1` (stereo not given), 8.26%; to `CCn1nc(C)c(CCNC(=O)C2CCCN(C(=O)COC)C2)c1C` (stereo not given), 18%. To `CC(C)C1CN(S(=O)(=O)C2CC2)CCCN1Cc1ccc(F)cc1` (stereo not given) belongs -3.51%. In the case of `COC(=O)c1ccn(CC(=O)Nc2nn(CC3CC3)c3ccccc23)n1`, the cytotoxicity at 70.5 h is -0.998%. `CN1CSC[C@H]1C(=O)N1CCN(Cc2cccc(Cl)c2)CC1`: the cytotoxicity at 70.5 h is -5.08%.

`COCC1CCN(C(=O)c2cc(-c3ccco3)nc3c(Cl)cccc23)C1` (stereo not given): the cytotoxicity at 70.5 h is -20.7%. Regarding `Cc1ccc(C2(O)CCN(C(=O)CCn3ccc(=O)[nH]c3=O)CC2)nc1`, the cytotoxicity at 70.5 h was -10.1%.

Take `COc1cc(C)ccc1OCc1nc(C(=O)N2CCCC2)co1`: the cytotoxicity at 70.5 h turned out to be 0.58%.

Consider `CCN(CC)C(=O)Cn1cc(-c2nc(-c3ccccc3C)no2)nn1`, for which the cytotoxicity at 70.5 h was -9.94%. Under `CCOCCNC(=O)c1cccc(S(=O)(=O)NC[C@@H]2C[C@H](F)CN2)c1` stands 31.3%; under `COCc1cc(CN(C)C(C(=O)O)c2cc(C)c(OC)c(C)c2)n[nH]1` (stereo not given), -2.3%; under `Cc1cnc(-n2cnnc2)c(-c2cccc3c2CCNC3)c1`, -7.78%. To `CN(Cc1ccccc1)S(=O)(=O)N1C[C@H](C2CC2)[C@@H](N)C1` belongs -1.23%; to `O=C(c1c[nH]c(=O)[nH]c1=O)N1CCCC(c2nccn2CC2CCC2)C1` (stereo not given), -24.3%; to `CC/C=C(\C)CN1CCC(CNC(=O)c2ccc(=O)[nH]c2)CC1`, -6.38%.

As to `Cc1ccc2nc(CN3CCC(O)(CN4CCCC4)CC3)cc(O)c2c1`, the cytotoxicity at 70.5 h was -7.1%. To `CN(CC1Cc2ccccc2CN1C)C(=O)Cc1cccs1` (stereo not given) belongs -6.46%. `CCn1c(Cn2ccnc2)nnc1C1CCN(Cc2ccc(C)o2)CC1`: the cytotoxicity at 70.5 h amounted to 5.39%. Under `c1cncc(NCCNC2CCSC2)c1` (stereo not given) stands 14.7%; under `Cc1nonc1C1CCCN1C(=O)c1cc2n(n1)CCCN(C(C)C)C2` (stereo not given), -6.2%.

For `O=C(NCCN1CCOC1=O)c1cc(-c2ccccc2)on1`, the cytotoxicity at 70.5 h is 33.3%.

With `CN1CC2(CCCN(Cc3nnc(-c4ccco4)o3)CC2)OC1=O` (stereo not given), the cytotoxicity at 70.5 h is -0.887%.

As for `CSCc1nc(CCNC(=O)c2cnn(C(C)C)c2)cs1`, the cytotoxicity at 70.5 h is -1.66%.

Consider `O=S1(=O)C[C@@H]2[C@H](C1)N(Cc1cccc(O)c1)CCN2CC1CC1`, for which the cytotoxicity at 70.5 h is -5.99%. Consider `CCCc1cc(C(=O)NC2CCCCNC2=O)[nH]n1` (stereo not given), for which the cytotoxicity at 70.5 h was -5.95%. To `CC(=O)Nc1ccc2nc(-c3nccn3CC(C)(C)CO)ccc2c1` belongs -11%; to `C1CCC(CNC2CCSCC2)(N2CCOCC2)CC1`, 3.74%. Under `COc1ccc(Oc2ccc(C(F)(F)F)cn2)cc1CN1CCCC1` stands -11.6%; under `Oc1cc(CN2CCC(O)(Cn3ccnc3)CC2)nc2ccc(F)cc12`, -7.61%; under `Cc1ccc2nc(C)c(C)c(C(=O)NCCCn3cnnc3)c2c1`, -2.61%. Under `Cc1nc2c(c(N3CCN(c4ncccc4C(N)=O)CC3)n1)CCNC2` stands -3.51%; under `COCCN1C[C@H]2CC[C@@H]1CN(CC(=O)Nc1ccn(C)n1)C2`, -9.39%; under `COc1cccc(N2CCN(C(C(=O)O)c3ccc(OC)nc3)CC2)c1` (stereo not given), -9.28%. As to `CCN(CC)Cc1cc(C(=O)N2CC[C@@]3(O)CCCC[C@H]3C2)c(C)o1`, the cytotoxicity at 70.5 h was -9.79%. To `CC(C)CN1CC2(CCN(C(=O)C(O)c3cccc(Cl)c3)CC2)CC1=O` (stereo not given) belongs 1.55%; to `CCN1CCC2(CCC1=O)CN(c1nccc(N)n1)CCN2C` (stereo not given), -4.72%; to `NCc1cn(CC2CCCN(C(=O)NCCc3ccc(F)cc3)C2)nn1` (stereo not given), 22.7%.

Regarding `Cn1cnc(S(=O)(=O)N2C[C@@H]3CC[C@H](C2)N(Cc2cscn2)C3=O)c1`, the cytotoxicity at 70.5 h is -6.52%. To `CC(C)c1noc(CC[C@@H]2CCCN3CCCC[C@H]23)n1` belongs -0.439%; to `O=C(Cn1nnc(-c2ccc(F)cc2)n1)N1CCOCC(O)C1` (stereo not given), -1.8%; to `CCN(Cc1ccc(C(C)C)cc1)C(=O)c1csc(CN(C)C)n1`, 7.36%. Regarding `CC(C)=CCN1CCc2onc(-c3ccc(F)c(F)c3)c2C1`, the cytotoxicity at 70.5 h is -11.7%. Turning to `O=C(O)c1cccnc1CN1CCCCC1CCc1ccccn1` (stereo not given), the cytotoxicity at 70.5 h is -14.4%.

`CCc1ccc2nc(C)cc(C(=O)N[C@@H]3C[C@@H](CO)N(C)C3)c2c1`: the cytotoxicity at 70.5 h is -3.88%. To `CCN(CC)Cc1cc(C(=O)N2CCC3(CC2)NCCNC3=O)c(C)o1` belongs 1.97%; to `Cn1ccnc1-c1ccc(NCc2cn3c(n2)SCC3)nn1`, -1.93%; to `CN(C)S(=O)(=O)N1CCCCC1CCc1ccc(O)cc1` (stereo not given), -6.59%. To `O=C(CN1CCCCC1=O)N1CCC2(CC1)[C@H](O)C[C@@H]2O` belongs -3.31%; to `O=C(CSc1ccncc1)NC1CC(=O)N(CCc2ccccc2)C1` (stereo not given), -8.43%.

As to `CN(C)CC1(O)CCN(C(=O)c2cnc(CN3CCCC3)s2)C1` (stereo not given), the cytotoxicity at 70.5 h was 0.326%. To `CN(C)c1nc2c(c(N3CCc4c(c(CO)nn4C)C3)n1)CCNC2` belongs 46.5%. Under `Cc1ccc2c(c1)c(CNC(C)Cn1nc(C)cc1C)nn2C` (stereo not given) stands 2.8%. To `Cc1ccc(CN2C[C@@H](C(=O)O)[C@H](c3ccccn3)C2)o1` belongs 17.9%. With `Cc1cn2cc(-c3nc4c([nH]3)CCCNC4=O)nc2s1`, the cytotoxicity at 70.5 h is -10.3%. Take `Cn1cnnc1CN1CCC2(CCC(=O)N(Cc3ccccn3)C2)CC1`: the cytotoxicity at 70.5 h was -6.09%.

For the molecule `CC(C)CN1CCN(S(=O)(=O)c2cn(C)cn2)[C@H]2CS(=O)(=O)C[C@H]21`, the cytotoxicity at 70.5 h was -9.12%. To `CCOCCOc1ccccc1C(=O)N1C[C@H](C2CC2)[C@@H](N)C1` belongs 27.2%; to `CC(C)Cc1cc(C(=O)NCCc2nnc(N)s2)n(C)n1`, -23.5%. Under `CCc1c(C)nn(CCNC(=O)Cc2csc(C)n2)c1C` stands -6.58%; under `Cc1cc(-c2cc(-c3cc(CC(=O)O)cs3)nc(N)c2C#N)oc1C`, -12.1%. Take `CCn1nc(NC(=O)Cn2ccc(C(C)=O)n2)c2ccccc21`: the cytotoxicity at 70.5 h was 26.9%.

Take `CNC1CCN(C2CCN(c3ccc(-c4ccco4)cc3)CC2)CC1`: the cytotoxicity at 70.5 h worked out at 8.23%. Under `CC(C)=CCN1CCN(C(=O)c2cc(C(C)C)no2)[C@H]2CS(=O)(=O)C[C@H]21` stands -8.12%; under `CCn1cc(-c2cc(-c3ccn(C)c3)nc(N)c2C#N)cc1C#N`, 5.48%. Under `CN1CCN(C(=O)c2cccc(S(=O)(=O)NCC3(C)COC3)c2)CC1` stands -9.16%; under `COC(=O)c1ccc2ccn(CC3CCCCO3)c(=O)c2c1` (stereo not given), -4.76%.

Regarding `CC(=O)N1C[C@@H]2CC[C@H](C1)N(C(=O)CCc1n[nH]c3c1CCCC3)C2`, the cytotoxicity at 70.5 h stood at 1.78%. To `Cc1ccc(CN2CCC(n3cc(CN4CCC(O)CC4)nn3)CC2)s1` belongs -6.27%; to `CCc1ncc2c(n1)CN(C(=O)CCCc1ccc(OC)cc1)C2`, -6.31%. Under `Cc1ncc(C(=O)N2CCCC(C(=O)CCc3ccccc3)C2)s1` (stereo not given) stands -13.8%; under `CN1CCN2C[C@@H](NC(=O)c3nc4ccccc4[nH]3)C[C@H]2C1`, -4.68%. Under `CCNc1ccnc(-c2ccnc3c2ccn3C)n1` stands -2.33%; under `CCN(CCc1nc2cc(C)ccc2[nH]1)C(=O)[C@@H](N)CCSC`, -4.38%.

For `COC1CCN(C(=O)Cn2cccc(C(F)(F)F)c2=O)C1` (stereo not given), the cytotoxicity at 70.5 h is -8.78%. Under `C[C@@H]1CN(Cc2nc(C(N)=O)no2)CC[C@@]1(O)C1CCOCC1` stands -8.91%; under `Cc1cc2c(N3CCC(N(C)Cc4nccs4)CC3)ncnc2s1`, 9.35%. As to `Cc1csc2c(N3CCC(Cn4cc(C(C)(C)O)nn4)CC3)ncnc12`, the cytotoxicity at 70.5 h is -9.53%. Regarding `CC(C)N1CCCn2nc(C(=O)NCc3ccccc3F)cc2C1`, the cytotoxicity at 70.5 h is -5.27%. For `Cn1cc(CN2CCCC23CCN(c2nc4ccccc4s2)CC3)cn1`, the cytotoxicity at 70.5 h is -4.41%. To `CNS(=O)(=O)CCNC(=O)c1coc(COc2ccc(F)cc2)n1` belongs -4.33%.

For `Cc1nc(CN(C)C(=O)c2ccc(Cn3cnnn3)cc2)cs1`, the cytotoxicity at 70.5 h turned out to be 21.4%. For the molecule `COc1cccc(C2CCN(c3ccc4cc[nH]c4n3)C2)c1OC` (stereo not given), the cytotoxicity at 70.5 h came to 1.26%.
